Assay results from US20030153548A1, “Histamine-3 receptor ligands for diabetic conditions” (priority 2002, published 2003).

What was measured:
[1] = system: C57BL-6J mice fed a high-fat diet; assay: Insulin tolerance test in mice fed a high-fat diet; type: in vivo; settings: FIG. 1
Method: Assessment of the ability of H3 receptor antagonists to ameliorate symptoms of diabetes has been determined in several ways. In the first instance, effects of an H3 antagonist on the insulin tolerance test in mice fed a high-fat diet were determined. C57BL-6J mice (aged 5-6 weeks) were obtained from Jackson Labs (Bar Harbor, Me., U.S.A.) and individually housed at Abbott facilities under conditions of 12 h lights on, 12 h lights off (on at 22:00), with food and water available ad libitum. […] Nine days prior to drug treatment, postprandial blood glucose was determined via a Medisense-G glucometer (Abbott Laboratories, Medisense Division, Bedford, Mass., U.S.A.). […] On day 21, animals were fasted for 3 hours and fasting blood glucose determined in a blood sample obtained by tail snip. Insulin tolerance was determined by administering insulin (Lilly Humulin-R, 0.25 U/kg, i.p., obtained from Eli Lilly and Company, Indianapolis, Ind., U.S.A.) with blood glucose measured at 30, 60, 90 and 120 minutes using the glucometer. […] The 4′-{3-[(3R)-3-(dimethylamino)pyrrolidinyl]propoxy} [1,1′-biphenyl]-4-carbonitrile compound was administered p.o. at doses of 0.5, 5, and 15 mg/kg b.i.d., and dexfenfluramine at a dose of 10 mg/kg p.o., b.i.d. Data were analyzed using GraphPad InStat® (San Diego, Calif., U.S.A.) software using a one-way ANOVA software followed by Dunnett's post hoc test.

[2] = system: C57BL-6J mice fed a high-fat diet; assay: Serum triglyceride levels in mice fed a high-fat diet; type: in vivo; settings: FIG. 2

CN(C)[C@@H]1CCN(CCCOc2ccc(-c3ccc(C#N)cc3)cc2)C1 [Compound A, 4′-{3-[(3R)-3-(dimethylamino)pyrrolidinyl]propoxy}[1,1′-biphenyl]-4-carbonitrile]
insulin tolerance test (blood glucose after insulin) ([1]; 15 mg/kg p.o. twice daily): completely normalized | insulin tolerance test (blood glucose after insulin) ([1]; 0.5, 5 and 15 mg/kg p.o. b.i.d., day 21, insulin 0.25 U/kg i.p.): dose-dependent improvement

CN(C)C1CCN(CCCOc2c(F)cc(-c3ccc(C#N)cc3)cc2F)C1 (centres unmarked) [Compound B]
triglyceride levels ([2]; 10 mg/kg p.o. b.i.d., after 13 days): reduced to the same level as those seen in low-fat diet fed mice | triglyceride levels ([2]; 1, 3 and 10 mg/kg p.o. b.i.d., postprandial blood after 13 days): clear, dose-dependent decrease

CC(C)CC(N(C)C)C1(c2ccc(Cl)cc2)CCC1 (centres unmarked) [sibutramine, reference compound]
triglyceride levels (effects as of Compound B) ([2]; 5 mg/kg p.o. b.i.d., after 13 days): not seen
